Measurements from patent publication US4902800A, “1-Substituted-4-pyrrolidinopiperidines as inhibitors of interleukin 1” (American Home Products Corporation, priority 1988, dated 1990).

Tested on: IL 1-induced release of neutral protease from rabbit articular chondrocytes
Assay: Inhibition of IL 1-induced release of neutral protease from rabbit articular chondrocytes (azocoll degradation)
Format: cell-based, rabbit (New Zealand White)
Conditions: Oryctolagus cuniculus, Chondrocyte, test compound 10 min. prior to human IL 1, 24 h after IL 1 stimulation, read-out: % Inhibition (I.S.D.)
Method: The ability of the compounds of the inventions to inhibit interleukin 1 is measured by the ability of the test compounds to inhibit the IL 1-induced release of neutral protease from rabbit articular chondrocytes.
Male New Zealand White rabbits are anesthetized with 50 mg/kg of ketamine (i.m.) and killed by an intracardiac injection of 3 mls. of Nembutal. The knee joints of both legs are resected and the articular surfaces are exposed. Cartilage slices are obtained using scalpel and are placed in a tissue culture dish (100 mm diameter) containing 10 mls of Hank's balanced salt solution (HBSS). The chondrocytes within the cartilage slices are then liberated by a series of enzyme digestions. The slices are incubated for 10 min. at 37° C. in 0.05% hyaluronidase (Sigma H-3884), rinsed with HBSS and incubated with 0.2% trypsin (Sigma T-2395) for 10 min. at 37° C. The slices are rinsed again and incubated for 10 mins. at 37° C. with 1.2% collagenase (Sigma C-5138). The slices are then rinsed again with HBSS and resuspended in 10 ml of Ham's F-12 medium containing 10% fetal bovine calf serum (FCS) and 0.2% collagenase and incubated overnight at 37° C. in a 5% CO2 incubator. The next day, the medium containing the digested cartilage fragments and liberated chondrocytes is transferred to a 15 ml centrifuge tube and the cells are collected by centrifugation and washed twice and resuspended in Ham's F-12 medium. The cells are then plated into 24-well tissue culture plates (2×10^5 cells/well) and incubated at 37° C. until confluent (usually 4-6 days).
The confluent chondrocytes are rinsed twice with serum-free Ham's F-12 medium and 1 ml is added to each well. Fifty μl of purified human IL 1 (100 Units/ml; Genzyme Corporation, Boston, MA) is then added to stimulate these cells to secrete neutral protease. To measure drug effects, the cells are treated with test compound 10 min. prior to addition of IL 1. The standard screening dose is 10 μM. Twenty-four hours after IL 1 stimulation, supernatant fluids are collected and assayed for neutral protease activity.
The neutral protease activity of chondrocyte supernatant fluids is determined by their ability to degrade an insoluble protease substrate, azocoll (Sigma). Supernatants are treated for 10 min. at room temperature with 350 μM p-aminophenylmercuric acetate to activate the latent enzyme. Three hundred μl of supernatant is then mixed with 500 μl of a 20 mg/ml suspension of azocoll and incubated at 37° C. for 18-24 hrs. with gentle rocking. The mixtures are centrifuged and the amount of substrate hydrolyzed is determined by measuring the absorbance of the supernatant at 520 nm.
Drug effects are calculated as the % change in enzyme activity (absorbance)by supernatants from drug-treated chondrocytes relative to enzyme activity of supernatants from vehicle-treated chondrocytes as follows: [formula]

Structure (SMILES)	inhibition at 0.1 µM	inhibition at 1 µM	inhibition at 10 µM
CS(=O)(=O)c1ccc(N2CCC(N3CCCC3)CC2)cc1 [Example 2, 1-[4-(Methylsulfonyl)phenyl]-4-(1-pyrrolidinyl)piperidine]	22%	87%	91%
N#Cc1ccc(N2CCC(N3CCCC3)CC2)cc1 [Example 1, 4-[4-(1-Pyrrolidinyl)-1-piperidinyl]benzonitrile]	48%	57%	26%
